From the supplement of paper PMC10307832 come the findings set out here.

Common to all, as to test: relative viability (nuclei count vs DMSO), 5 days (fraction); higher = more cells survive
Compound in the test “Midostaurin + Decitabine”: CO[C@@H]1[C@H](N(C)C(=O)c2ccccc2)C[C@H]2O[C@]1(C)n1c3ccccc3c3c4c(c5c6ccccc6n2c5c31)C(=O)NC4 [Midostaurin] + Nc1ncn([C@H]2C[C@H](O)[C@@H](CO)O2)c(=O)n1 [Decitabine] (partner 2 µM)
The method in brief: (§1)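 Lung cancer cell lines in 1536-well plates were dosed by pin tool the day after seeding, either with one drug alone or with a fixed anchor-drug dose plus five library-drug doses (not always all listed) in √10 steps. After 5 days, cells were fixed and their nuclei stained in one step (final 0.05% Triton X-100, 1% formaldehyde, 1 ug/ml Hoechst), then counted on 4× images. Relative viability is the nuclei count in treated wells divided by that in vehicle wells. Values are medians of duplicate plates.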

Compound in the test “Midostaurin + Phenformin”: CO[C@@H]1[C@H](N(C)C(=O)c2ccccc2)C[C@H]2O[C@]1(C)n1c3ccccc3c3c4c(c5c6ccccc6n2c5c31)C(=O)NC4 [Midostaurin] + N=C(N)NC(=N)NCCc1ccccc1 [Phenformin] (partner 250 µM)
An outline of the steps:
as §1

Compound in test [1]: COc1cc(-c2nn([C@H]3CC[C@H](N4CCN(C(C)=O)CC4)CC3)c3ncnc(N)c23)ccc1NC(=O)c1cc2ccccc2n1C + C[C@]1(O)C[C@@H](c2nc(-c3ccc4ccc(-c5ccccc5)nc4c3)c3c(N)nccn32)C1 [Linsitinib] (partner 1 µM)
An outline of the steps:
as §1

Compound in the test “Midostaurin + Luminespib”: CO[C@@H]1[C@H](N(C)C(=O)c2ccccc2)C[C@H]2O[C@]1(C)n1c3ccccc3c3c4c(c5c6ccccc6n2c5c31)C(=O)NC4 [Midostaurin] + CCNC(=O)c1noc(-c2cc(C(C)C)c(O)cc2O)c1-c1ccc(CN2CCOCC2)cc1 [Luminespib] (partner 0.01 µM)
The method in brief:
as §1

Compound in the test “Midostaurin + Pictilisib”: CO[C@@H]1[C@H](N(C)C(=O)c2ccccc2)C[C@H]2O[C@]1(C)n1c3ccccc3c3c4c(c5c6ccccc6n2c5c31)C(=O)NC4 [Midostaurin] + CS(=O)(=O)N1CCN(Cc2cc3nc(-c4cccc5[nH]ncc45)nc(N4CCOCC4)c3s2)CC1 [Pictilisib] (partner 1 µM)
The method in brief: as §1

In the case of NCI-H1648, the relative viability in the test with Midostaurin + Decitabine (first compound 0.01 µM) was 0.499; with Midostaurin + Decitabine (first compound 0.3162 µM), 0.446.

Consider SK-MES-1, for which the relative viability with Midostaurin + Phenformin (first compound 0.01 µM) stood at 0.647; in the test with Midostaurin + Phenformin (first compound 0.03162 µM), 0.582; with Midostaurin + Phenformin (first compound 0.1 µM) it was 0.631; in the test with Midostaurin + Phenformin (first compound 0.3162 µM) it was 0.562; in test [1] (first compound 0.0128 µM) it was 1.13; in test [1] (first compound 0.04048 µM), 1.17. Further, the relative viability is 1.07 in test [1] (first compound 0.128 µM); 1.06 in test [1] (first compound 1.28 µM); 0.785 in the test with Midostaurin + Luminespib (first compound 0.01 µM); 0.804 in the test with Midostaurin + Luminespib (first compound 0.03162 µM); 0.733 with Midostaurin + Luminespib (first compound 0.1 µM); 0.336 with Midostaurin + Luminespib (first compound 0.3162 µM). Further, the relative viability with Midostaurin + Pictilisib (first compound 0.01 µM) turned out to be 0.412; with Midostaurin + Pictilisib (first compound 0.03162 µM), 0.332; with Midostaurin + Pictilisib (first compound 0.1 µM), 0.431; with Midostaurin + Pictilisib (first compound 0.3162 µM), 0.368; in the test with Midostaurin + Decitabine (first compound 0.01 µM), 0.42; with Midostaurin + Decitabine (first compound 0.03162 µM), 0.41. Further, the relative viability in the test with Midostaurin + Decitabine (first compound 0.1 µM) is 0.333; with Midostaurin + Decitabine (first compound 0.3162 µM) it was 0.381.

For HCC-366, the relative viability with Midostaurin + Phenformin (first compound 0.01 µM) is 0.597; with Midostaurin + Phenformin (first compound 0.03162 µM) it was 0.528; in the test with Midostaurin + Phenformin (first compound 0.1 µM) it was 0.689; in the test with Midostaurin + Phenformin (first compound 0.3162 µM), 0.615; in test [1] (first compound 0.0128 µM), 0.531; in test [1] (first compound 0.04048 µM), 0.513. Besides, the relative viability in test [1] (first compound 0.128 µM) was found to be 0.531; in test [1] (first compound 1.28 µM) it was 0.257; with Midostaurin + Pictilisib (first compound 0.01 µM), 0.167; with Midostaurin + Pictilisib (first compound 0.03162 µM), 0.116; in the test with Midostaurin + Pictilisib (first compound 0.1 µM) it was 0.142; with Midostaurin + Pictilisib (first compound 0.3162 µM), 0.137. The relative viability with Midostaurin + Decitabine (first compound 0.01 µM) stood at 0.383; with Midostaurin + Decitabine (first compound 0.03162 µM) it was 0.364; with Midostaurin + Decitabine (first compound 0.1 µM) it was 0.325; with Midostaurin + Decitabine (first compound 0.3162 µM), 0.298.

For the cell line 201T, the relative viability with Midostaurin + Phenformin (first compound 0.01 µM) worked out at 0.447; in the test with Midostaurin + Phenformin (first compound 0.03162 µM), 0.423; with Midostaurin + Phenformin (first compound 0.1 µM), 0.468; with Midostaurin + Phenformin (first compound 0.3162 µM), 0.47; in test [1] (first compound 0.0128 µM), 0.979; in test [1] (first compound 0.04048 µM), 1.05. Besides, the relative viability in test [1] (first compound 0.128 µM) worked out at 0.927; in test [1] (first compound 1.28 µM), 0.665; with Midostaurin + Luminespib (first compound 0.01 µM) it was 1.02; in the test with Midostaurin + Luminespib (first compound 0.03162 µM), 0.98; in the test with Midostaurin + Luminespib (first compound 0.1 µM), 0.997; with Midostaurin + Luminespib (first compound 0.3162 µM), 1.06. Also, the relative viability turned out to be 0.707 in the test with Midostaurin + Pictilisib (first compound 0.01 µM); 0.571 with Midostaurin + Pictilisib (first compound 0.03162 µM); 0.659 in the test with Midostaurin + Pictilisib (first compound 0.1 µM); 0.722 with Midostaurin + Pictilisib (first compound 0.3162 µM); 0.878 in the test with Midostaurin + Decitabine (first compound 0.01 µM); 0.91 with Midostaurin + Decitabine (first compound 0.03162 µM). The relative viability turned out to be 0.83 in the test with Midostaurin + Decitabine (first compound 0.1 µM) and 0.867 in the test with Midostaurin + Decitabine (first compound 0.3162 µM).

Take HCC-827: the relative viability with Midostaurin + Phenformin (first compound 0.01 µM) was determined as 0.364; with Midostaurin + Phenformin (first compound 0.03162 µM), 0.369; in the test with Midostaurin + Phenformin (first compound 0.1 µM), 0.449; in the test with Midostaurin + Phenformin (first compound 0.3162 µM) it was 0.422; in test [1] (first compound 0.0128 µM) it was 0.957; in test [1] (first compound 0.04048 µM), 1.02. Moreover, the relative viability in test [1] (first compound 0.128 µM) was found to be 0.958; in test [1] (first compound 1.28 µM), 0.995; in the test with Midostaurin + Luminespib (first compound 0.01 µM), 0.51; in the test with Midostaurin + Luminespib (first compound 0.03162 µM), 0.644; with Midostaurin + Luminespib (first compound 0.1 µM) it was 0.709; with Midostaurin + Luminespib (first compound 0.3162 µM) it was 0.813. For the same cell line, the relative viability with Midostaurin + Pictilisib (first compound 0.01 µM) came out at 1.03; with Midostaurin + Pictilisib (first compound 0.03162 µM), 1; with Midostaurin + Pictilisib (first compound 0.1 µM), 1.16; in the test with Midostaurin + Pictilisib (first compound 0.3162 µM), 1.25; with Midostaurin + Decitabine (first compound 0.01 µM), 0.303; in the test with Midostaurin + Decitabine (first compound 0.03162 µM), 0.318. The relative viability is 0.356 with Midostaurin + Decitabine (first compound 0.1 µM) and 0.349 with Midostaurin + Decitabine (first compound 0.3162 µM).

Regarding NCI-H647, the relative viability in the test with Midostaurin + Phenformin (first compound 0.01 µM) was 0.533; with Midostaurin + Phenformin (first compound 0.03162 µM) it was 0.603; with Midostaurin + Phenformin (first compound 0.1 µM) it was 0.473; with Midostaurin + Phenformin (first compound 0.3162 µM) it was 0.433; in test [1] (first compound 0.0128 µM), 1.3; in test [1] (first compound 0.04048 µM) it was 1.36. In addition, the relative viability in test [1] (first compound 0.128 µM) was 1.14; in test [1] (first compound 1.28 µM), 0.785; with Midostaurin + Luminespib (first compound 0.01 µM), 0.191; with Midostaurin + Luminespib (first compound 0.03162 µM), 0.181; with Midostaurin + Luminespib (first compound 0.1 µM), 0.141; in the test with Midostaurin + Luminespib (first compound 0.3162 µM), 0.264. The relative viability was 0.387 with Midostaurin + Pictilisib (first compound 0.01 µM); 0.532 with Midostaurin + Pictilisib (first compound 0.03162 µM); 0.311 with Midostaurin + Pictilisib (first compound 0.1 µM); 0.294 with Midostaurin + Pictilisib (first compound 0.3162 µM); 0.405 with Midostaurin + Decitabine (first compound 0.01 µM); 0.433 with Midostaurin + Decitabine (first compound 0.03162 µM). Besides, the relative viability with Midostaurin + Decitabine (first compound 0.1 µM) came out at 0.346; with Midostaurin + Decitabine (first compound 0.3162 µM), 0.374.

For the cell line NCI-H2023, the relative viability with Midostaurin + Phenformin (first compound 0.01 µM) was 0.448; with Midostaurin + Phenformin (first compound 0.03162 µM) it was 0.432; with Midostaurin + Phenformin (first compound 0.1 µM), 0.4; in the test with Midostaurin + Phenformin (first compound 0.3162 µM), 0.285; in test [1] (first compound 0.0128 µM), 0.7; in test [1] (first compound 0.04048 µM) it was 0.641. Moreover, the relative viability in test [1] (first compound 0.128 µM) was found to be 0.624; in test [1] (first compound 1.28 µM), 0.531; in the test with Midostaurin + Luminespib (first compound 0.01 µM), 0.627; with Midostaurin + Luminespib (first compound 0.03162 µM), 0.753; with Midostaurin + Luminespib (first compound 0.1 µM), 0.589; with Midostaurin + Luminespib (first compound 0.3162 µM), 0.333. The relative viability stood at 0.235 with Midostaurin + Pictilisib (first compound 0.01 µM); 0.249 with Midostaurin + Pictilisib (first compound 0.03162 µM); 0.208 with Midostaurin + Pictilisib (first compound 0.1 µM); 0.186 with Midostaurin + Pictilisib (first compound 0.3162 µM); 0.226 in the test with Midostaurin + Decitabine (first compound 0.01 µM); 0.273 with Midostaurin + Decitabine (first compound 0.03162 µM). In addition, the relative viability in the test with Midostaurin + Decitabine (first compound 0.1 µM) amounted to 0.223; with Midostaurin + Decitabine (first compound 0.3162 µM), 0.201.

For the cell line NCI-H520, the relative viability is 0.572 with Midostaurin + Phenformin (first compound 0.01 µM); 0.471 with Midostaurin + Phenformin (first compound 0.03162 µM); 0.756 in the test with Midostaurin + Phenformin (first compound 0.1 µM); 0.634 with Midostaurin + Phenformin (first compound 0.3162 µM); 0.715 in test [1] (first compound 0.0128 µM); 0.795 in test [1] (first compound 0.04048 µM). The relative viability is 0.9 in test [1] (first compound 0.128 µM); 0.683 in test [1] (first compound 1.28 µM); 0.221 with Midostaurin + Luminespib (first compound 0.01 µM); 0.204 with Midostaurin + Luminespib (first compound 0.03162 µM); 0.235 with Midostaurin + Luminespib (first compound 0.1 µM); 0.258 with Midostaurin + Luminespib (first compound 0.3162 µM). Also, the relative viability was determined as 0.257 with Midostaurin + Pictilisib (first compound 0.01 µM); 0.239 in the test with Midostaurin + Pictilisib (first compound 0.03162 µM); 0.3 with Midostaurin + Pictilisib (first compound 0.1 µM); 0.362 with Midostaurin + Pictilisib (first compound 0.3162 µM); 0.498 with Midostaurin + Decitabine (first compound 0.01 µM); 0.501 with Midostaurin + Decitabine (first compound 0.03162 µM). For the same cell line, the relative viability with Midostaurin + Decitabine (first compound 0.1 µM) was determined as 0.514; in the test with Midostaurin + Decitabine (first compound 0.3162 µM), 0.427.
